Results from ChEMBL document CHEMBL1123733, “Structure-activity relationship in PAF-acether. 3. Hydrophobic contribution to agonistic activity” (J Med Chem, 1987).

How the values were obtained:
Oryctolagus cuniculus [1] = species: Oryctolagus cuniculus; assay: Relative aggregant activity in rabbit platelets was determined; assay type: functional
Rattus norvegicus = assay: (§1) Compound is evaluated for hypotensive activity in anesthetized rat (in vivo); assay type: functional
Oryctolagus cuniculus [2] = species: Oryctolagus cuniculus; assay: Compound was tested in vitro for its ability to aggregate platelet-rich plasma (PRP) in rabbit; assay type: functional
Cavia porcellus [3] = assay: Compound was evaluated for in vivo thrombocytopenia effect in anesthetized guinea pig; assay type: functional, organism-based
Cavia porcellus [4] = assay: Compound was evaluated for in vivo bronchoconstriction in anesthetized guinea pig (3 cm H2O); assay type: functional, Lung
[5] = as §1; assay type: functional
Oryctolagus cuniculus [6] = species: Oryctolagus cuniculus; assay: Compound was tested in vitro for its ability to aggregate washed rabbit platelets (WP); assay type: functional

EC50 (Oryctolagus cuniculus [2]) [nM]	EC50 (Cavia porcellus [3]) [M/kg]	SMILES	RA (Oryctolagus cuniculus [1])	Activity (Cavia porcellus [4]) [M/kg]	also measured
		CCCCCCCCCCOCCOCCOCC(COP(=O)([O-])OCC[N+](C)(C)C)OC(C)=O (stereo not drawn)	0.28		
		CCCCCCCCCCCCCCCCCCSCC(COP(=O)([O-])OCC[N+](C)(C)C)OC(C)=O (stereo not drawn)	0		
		COCCOCCOCCCCCCCCOCC(COP(=O)([O-])OCC[N+](C)(C)C)OC(C)=O (stereo not drawn)	0.007		
19	1.8e-10	CCCCCCCCCCCCCCCCCCOC[C@H](COP(=O)([O-])OCC[N+](C)(C)C)OC(C)=O		1.8e-10	EC30 (Rattus norvegicus): 4.9e-10 M/kg
		CCCCCCCCCCCCCCCCCC(=O)OCC(COP(=O)([O-])OCC[N+](C)(C)C)OC(C)=O (stereo not drawn)	0.004		
		CCCCCCCCCCOCc1ccc(OCC(COP(=O)([O-])OCC[N+](C)(C)C)OC(C)=O)cc1 (stereo not drawn)	0.01		
		CCCCCCCCCCCCCCCCCC(COP(=O)([O-])OCC[N+](C)(C)C)OC(C)=O (stereo not drawn)	0.005		
		CCCCCCCCCCCCCCCCCCCCC(COP(=O)([O-])OCC[N+](C)(C)C)OC(C)=O (stereo not drawn)	0		
1200	6e-10	CCCCCCCCCCOCC(COP(=O)([O-])OCC[N+](C)(C)C)OC(C)=O (stereo not drawn)	1.048	2.5e-10	EC30 [5]: 7e-09 M/kg; EC50 (Oryctolagus cuniculus [6]): 8.5 nM
		CCCCCCCCCCCCCCc1cccc(OCC(COP(=O)([O-])OCC[N+](C)(C)C)OC(C)=O)c1 (stereo not drawn)	0.364		
		CCCCCCCCCCCCCCCC(=O)OCC(COP(=O)([O-])OCC[N+](C)(C)C)OC(C)=O (stereo not drawn)	0.009		
		CCCCCCCCCCCCCCCCOCCC(COP(=O)([O-])OCC[N+](C)(C)C)OC(C)=O (stereo not drawn)	0.015		
		CCCCCCCC/C=C/CCCCCCCCOCC(COP(=O)([O-])OCC[N+](C)(C)C)OC(C)=O (stereo not drawn)	2		
57		CCCCCCCCCCCCCCCCCCOCC(COP(=O)([O-])OCC[N+](C)(C)C)OC(C)=O (stereo not drawn)	1		
		CCCCCCCCCCCCCCCCc1ccccc1OCC(COP(=O)([O-])OCC[N+](C)(C)C)OC(C)=O (stereo not drawn)	0.002		
190	1.8e-10	CCCCCCCCCCCCCCCCCCCCOCC(COP(=O)([O-])OCC[N+](C)(C)C)OC(C)=O (stereo not drawn)	0.8	1.3e-09	EC30 (Rattus norvegicus): 2.4e-09 M/kg; EC50 (Oryctolagus cuniculus [6]): 0.33 nM
		CCCCCCCCCCCCCCc1ccc(OCC(COP(=O)([O-])OCC[N+](C)(C)C)OC(C)=O)cc1 (stereo not drawn)	0.302		
> 100000	> 1.6e-06	COCC(COP(=O)([O-])OCC[N+](C)(C)C)OC(C)=O (stereo not drawn)		>1.6e-06	EC30 (Rattus norvegicus): >1.6e-06 M/kg
		CCCCCC/C=C/CCCCCCCCOCC(COP(=O)([O-])OCC[N+](C)(C)C)OC(C)=O (stereo not drawn)	1.6		
17000	1e-07	CCCCCCOCC(COP(=O)([O-])OCC[N+](C)(C)C)OC(C)=O (stereo not drawn)	0.003	2.6e-08	EC30 (Rattus norvegicus): 7e-07 M/kg; EC50 (Oryctolagus cuniculus [6]): 310 nM
100000	1e-06	CCCCOCC(COP(=O)([O-])OCC[N+](C)(C)C)OC(C)=O (stereo not drawn)	0.001	1e-06	EC30 (Rattus norvegicus): 1.1e-06 M/kg; EC50 (Oryctolagus cuniculus [6]): 1800 nM
		CCCCC/C=C/C/C=C/CCCCCCCCOCC(COP(=O)([O-])OCC[N+](C)(C)C)OC(C)=O (stereo not drawn)	2.667		
230	6e-10	CCCCCCCCCCCCOCC(COP(=O)([O-])OCC[N+](C)(C)C)OC(C)=O (stereo not drawn)	1.248	1.2e-10	EC30 (Rattus norvegicus): 3.3e-09 M/kg; EC50 (Oryctolagus cuniculus [6]): 0.45 nM
		CCCCCCCCCCOc1ccc(COCC(COP(=O)([O-])OCC[N+](C)(C)C)OC(C)=O)cc1 (stereo not drawn)	0.01		
		CCCCCCCCCCCCCCCCCCC(COP(=O)([O-])OCC[N+](C)(C)C)OC(C)=O (stereo not drawn)	0.022		

SMILES	EC50 (Oryctolagus cuniculus [2]) [nM]	EC50 (Cavia porcellus [3]) [M/kg]	RA (Oryctolagus cuniculus [1])	Activity (Cavia porcellus [4]) [M/kg]	also measured
CCCCCCCCCCCCCCCCOCC(COP(=O)([O-])OCC[N+](C)(C)C)OC(C)=O (stereo not drawn) [PLATELET ACTIVATING FACTOR]	45	2e-10	1.268	5e-11	EC30 (Rattus norvegicus): 1.3e-10 M/kg; EC50 (Oryctolagus cuniculus [6]): 0.2 nM
